This note sets out measurements from ChEMBL document CHEMBL4257490, “Development of a peptide-based bifunctional chelator conjugated to a cytotoxic drug for the treatment of melanotic melanoma” (Medchemcomm, 2018).

Data set [1] is described as follows: Drug uptake in mouse B16F10 cells using 5,6-carboxyfluorescein-labeled compound at 20 ug/ml after 4 hrs by DAPI staining-based fluorescence microscopic method. The format is ADME, cell-based. The settings on record: b16-f10, 4 h.
In data set [2] the test system is B16-F10. As to the kind of experiment: Ratio of drug uptake in mouse B16F10 cells at 20 ug/ml after 4 hrs by flow cytometric method to drug uptake in mouse B16F10 cells at 20 ug/ml after 30 mins by flow cytometric method. Type of data set: ADME, cell-based. In general terms: Flow cytometry measures light scatter and fluorescence of single cells or particles in a stream.

The nature of data set [3]: Hemolytic activity in rat erythrocytes up to 50 uM after 1 hr relative to control. The format is ADME, cell-based, Erythrocyte. The conditions noted are these: read-out: Activity.
Data set [4] in a line: Drug uptake in lung of Balb/c mouse allografted with mouse B16F10 cells using 99mTc(CO)3-labeled compound at 10 to 12 MBq/kg, iv measured at 2 hrs. The conditions noted are these: in vivo. Type of data set: ADME, organism-based.
Data set [5] is described as follows: Drug uptake in intestine of Balb/c mouse allografted with mouse B16F10 cells using 99mTc(CO)3-labeled compound at 10 to 12 MBq/kg, iv measured at 2 hrs. The format is ADME, organism-based. The conditions noted are these: in vivo.
Data set [6] can be described thus: Drug uptake in blood of Balb/c mouse allografted with mouse B16F10 cells using 99mTc(CO)3-labeled compound at 10 to 12 MBq/kg, iv measured at 4 hrs. The format is ADME, organism-based. The settings on record: in vivo.
Data set [7] in a line: Drug uptake in lung of Balb/c mouse allografted with mouse B16F10 cells using 99mTc(CO)3-labeled compound at 10 to 12 MBq/kg, iv measured at 4 hrs. Type of data set: ADME, organism-based. The conditions noted are these: in vivo.
Data set [8] is described as follows: Drug uptake in spleen of Balb/c mouse allografted with mouse B16F10 cells using 99mTc(CO)3-labeled compound at 10 to 12 MBq/kg, iv measured at 4 hrs. The format is ADME, organism-based. The conditions noted are these: in vivo.
Data set [9] in a line: Drug uptake in muscle of Balb/c mouse allografted with mouse B16F10 cells using 99mTc(CO)3-labeled compound at 10 to 12 MBq/kg, iv measured at 4 hrs. Type of data set: ADME, organism-based, Muscle tissue. The conditions noted are these: in vivo.
A short description of data set [10]: Drug uptake in stomach of Balb/c mouse allografted with mouse B16F10 cells using 99mTc(CO)3-labeled compound at 10 to 12 MBq/kg, iv measured at 4 hrs. Type of data set: ADME, organism-based. The settings on record: in vivo.
Data set [11] in a line: Ratio of drug level in tumor to muscle of Balb/c mouse allografted with mouse B16F10 cells using 99mTc(CO)3-labeled compound at 10 to 12 MBq/kg, iv measured at 4 hrs. The settings on record: in vivo. Type of data set: ADME, organism-based, Tumor/tissue.
Data set [12] is described as follows: Drug uptake in kidney of Balb/c mouse allografted with mouse B16F10 cells using 99mTc(CO)3-labeled compound at 4 to 8 MBq, iv measured at 4 hrs by scintigraphic imaging method. Type of data set: ADME, organism-based. The conditions noted are these: in vivo.
A short description of data set [13]: Drug uptake in liver of Balb/c mouse allografted with mouse B16F10 cells using 99mTc(CO)3-labeled compound at 4 to 8 MBq, iv measured at 4 hrs by scintigraphic imaging method. Type of data set: ADME, organism-based. The settings on record: in vivo.
Data set [14] in a line: Drug uptake in urinary bladder of Balb/c mouse allografted with mouse B16F10 cells using 99mTc(CO)3-labeled compound at 4 to 8 MBq, iv measured at 4 hrs by scintigraphic imaging method. The format is ADME, organism-based. The conditions noted are these: in vivo.
Data set [15] has as its system B16-F10. Put plainly: Antitumor activity against mouse B16F10 cells allografted in Balb/c mouse assessed as decrease in tumor development at 25 mg/kg, iv administered thrice weekly for 21 days starting on day 10 post tumor implantation by haematoxylin and eosin staining-based method. The format is functional, organism-based.
Data set [16] relates to B16-F10. Put plainly: Antitumor activity against mouse B16F10 cells allografted in Balb/c mouse assessed as decrease in formation of new blood vessels in tumor at 25 mg/kg, iv administered thrice weekly for 21 days starting on day 10 post tumor implantation by haematoxylin and eosin staining-based method. Type of data set: functional, organism-based.

Molecules are shown by their SMILES. Active and inactive are the calls of the source. No cut-off for these calls is given here. Residues, ends and D or L forms follow the SMILES beside them. *: point of attachment. X1 = O=c1nc(N*)ccn1[C@@H]1O[C@H](CO)[C@@H](O)C1(F)F

`NCCCC[C@H](NC(=O)CNC(=O)[C@H](Cc1cnc[nH]1)NC(=O)[C@H](CCCCN)NC(=O)[C@H](Cc1ccc(O)cc1)NC(=O)[C@@H](N)Cc1cnc[nH]1)C(=O)N[C@@H](CC(=O)Nc1ccn([C@@H]2O[C@H](CO)[C@@H](O)C2(F)F)c(=O)n1)C(N)=O` (H-HYKHGKD(X1)-NH2): the Drug uptake entry in data set [1] is on record as “Active”; in data set [4], 0.4 % ID/g; in data set [5] it was 8.51 % ID/g; in data set [6], 1.58 %ID/ml; in [7], 0.25 % ID/g; in data set [8], 0.45 % ID/g. The Drug uptake in data set [9] is listed as 0.15 % ID/g; in [10], 0.17 % ID/g; in data set [12], “Active”; in data set [13], “Active”; in data set [14] it was “Active”. The Ratio in the data set with B16-F10 [2] is 4.4; in [11], 18.73. Moreover, in data set [3], the hemolysis at 1 h was in the range of 5 to 6%. Besides, the result with B16-F10 [15] and with B16-F10 [16] was Active.
